Results published in patent US10034824B2, “Hair shaping composition” (Conopco, Inc., priority 2014, dated 2018).

Experiment: Hair switch volume-down test (switches dosed, combed straight, dried overnight, imaged)
Procedure: Dark brown European wavy#6 switches of length 25 cm and weight 2 gms (from the same batch of switches), were dosed with 0.2 ml of a 2% solution of monoglucosamine adipate. Control switches were treated with water.
All switches were combed straight and left to dry overnight.
When dry the switches were combed straight and pictures taken. […] The percentage benefit (i.e. decrease in volume) with respect to control (water) is also given.

[1] = 0.2 ml of a 2% solution on 25 cm, 2 gms switches, combed straight, dried overnight

monoglucosamine adipate
% benefit (decrease in volume with respect to control (water)) [1]: 8.0% | Volume (projection of the switch image on to the screen) [1]: 13047 mm^2 | hair volume-down benefit (2% solution vs water control, result in words): significant hair volume-down benefit
